Here are results for eight compounds from US8415476B2, “Indazole having analgesic activity” (Aziende Chimiche Riunite Angelini Francesco A.C.R.A.F. …, priority 2003, dated 2013).

The test system of data set [1] is mechanical hyperalgesia induced by CFA in the rat. The experiment in a line: Mechanical hyperalgesia induced by CFA in the rat. In kind it is in vivo. The note with it: male CD rats, dose 10^-5 mol/kg, test 23 hours after injection of CFA, vehicle 121 ± 4.1, normal animals 155±2.1 g. An excerpt: 1. Mechanical Hyperalgesia Induced by CFA in the Rat
Male CD rats weighing 150-200 g on arrival were used. Using an analgesiometer, rats were selected having a response threshold to a mechanical nociceptive stimulus of from 150 to 180 g. By applying a gradual increase in pressure on the dorsal zone of the rat's left hind foot, the instrument makes it possible to record the nocifensive response, expressed in grams, corresponding to the moment when the animal retracts its foot [Randall L O and Semite J J. A method for the measurement of analgesic activity on inflamed tissue. Arch. Int. Pharmacodyn. Ther. 1957; 111: 409-419].
Hyperalgesia was induced by unilateral injection of 150 μl of Complete Freund's Adjuvant (CFA) in the plantar surface of the animal's left hind foot [Andrew D, Greenspan J D. Mechanical and heat sensitization of cutaneous nociceptors after peripheral inflammation in the rat. J Neurophysiol 1999; 82(5): 2649-2656; Hargreaves K, Dubner R, Brown R, Flores C, Joris J. A new and sensitive method for measuring thermal nociception in cutaneous hyperalgesia. Pain 1988; 32: 77-88].
The compounds under examination were tested (dose 10^−5 mol/kg) by carrying out the test 23 hours after injection of CFA.
At 1 h following the treatment, the pain threshold measured in control animals was compared with that measured in animals treated with the product under examination. The control animals were treated with the same vehicle (water) used for administering the products under examination.

The subject of data set [2] is mechanical hyperalgesia in rats with diabetes induced by streptozotocin. Briefly: Mechanical hyperalgesia in rats with diabetes induced by streptozotocin. To be noted: male CD rats, streptozotocin 80 mg/kg i.p. diabetic neuropathy, dose 10^-5 mol/kg, vehicle 112 ± 4.0, normal animals 240±8.7 g. The class given is in vivo, rat. The method, then: The pain threshold of normal animals of equal weight/age=155±2.1 g 2. Mechanical Hyperalgesia in Rats with Diabetes Induced by Streptozotocin
Male CD rats weighing 240-300 g on arrival were used.
Diabetic syndrome was induced by a single intraperitoneal (i.p.) injection of 80 mg/kg of streptozotocin dissolved in sterile physiological solution [Courteix C, Eschalier A, Lavarenne J. Streptozotocin-induced diabetic rats: behavioural evidence for a model of chronic pain. Pain, 1993; 53: 81-88; Bannon A W, Decker M W, Kim Dj, Campbell J E, Arneric S P. ABT-594, a novel cholinergic channel modulator, is efficacious in nerve ligation and diabetic neuropathy models of neuropathic pain. Brain Res. 1998; 801: 158-63].
After at least three weeks following the injection of streptozotocin, rats were selected having a level of glycaemia ≧300 mg/dl and having a response threshold to a mechanical nociceptive stimulus ≦120 g. The glycaemia levels were measured by means of a reflectometer using reactive strips impregnated with glucose oxidase. The pain threshold was measured using an analgesiometer. By applying a gradual increase in pressure on the dorsal zone of the rat's left hind foot, the instrument makes it possible to record the nocifensive response, expressed in grams, corresponding to the moment when the animal retracts its foot.
At 2 h following the treatment, the pain threshold measured in control animals was compared with that measured in animals treated with the product under examination (dose 10^−5 mol/kg).
The control animals were treated with the same vehicle (water) used for administering the products under examination.

Structures are written as SMILES.

In the case of `CC(C)n1nc(C(=O)NCC2CCN(CCc3ccc(N)cc3)CC2)c2ccccc21.Cl.Cl` [AF3R294, N((1-(2-(4-aminophenyl)ethyl)-4-piperidinyl)methyl)-1-(1-methylethyl)-1H-indazole-3-carboxamide dihydrochloride], the “Pain threshold (g) 1 h after treatment” value in data set [1] is 194 ± 22.4 g. In addition, the “Pain threshold (g) 2 h after treatment” value in data set [2] came to 198 ± 18.6 g.

Regarding `Cc1ccc2c(c1)c(C(=O)NCC1CCN(CCc3ccc(O)cc3)CC1)nn2C(C)C.Cl` [AF3R296, N((1-(2-(4-hydroxyphenyl)ethyl)-4-piperidinyl)methyl)-5-methyl-1-(1-methylethyl)-1H-indazole-3-carboxamide hydrochloride], in data set [1], the “Pain threshold (g) 1 h after treatment” value is listed as 151 ± 10.7 g. Besides, in data set [2], the “Pain threshold (g) 2 h after treatment” value turned out to be 154 ± 8.7 g.

For `Cl.O=C(NCC1CCN(CCc2ccc([N+](=O)[O-])cc2)CC1)c1n[nH]c2ccccc12` [AF3R298, N((1-(2-(4-nitrophenyl)ethyl)-4-piperidinyl)methyl)-1H-indazole-3-carboxamide hydrochloride], the “Pain threshold (g) 1 h after treatment” value in data set [1] is reported as 174 ± 9.8 g. In addition, the “Pain threshold (g) 2 h after treatment” value in data set [2] is 170 ± 10.2 g.

On to `Cl.Cl.Nc1ccc(CCN2CCC(CNC(=O)c3n[nH]c4ccccc34)CC2)cc1` [AF3R302, N((1-(2-(4-aminophenyl)ethyl)-4-piperidinyl)methyl)-1H-indazole-3-carboxamide dihydrochloride], for which, in data set [1], the “Pain threshold (g) 1 h after treatment” value is on record as 160 ± 10.2 g. Also, the “Pain threshold (g) 2 h after treatment” value in data set [2] is on record as 164 ± 10.2 g.

In the case of `CC(C)n1nc(C(=O)NCC2CCN(CCc3ccc([N+](=O)[O-])cc3)CC2)c2ccccc21.O=C(O)C(=O)O` [AF3R306, N((1-(2-(4-nitrophenyl)ethyl)-4-piperidinyl)methyl)-1-(1-methylethyl)-1H-indazole-3-carboxamide oxalate], in data set [1], the “Pain threshold (g) 1 h after treatment” value is given as 186 ± 11.0 g. For the same compound, the “Pain threshold (g) 2 h after treatment” value in data set [2] was 184 ± 13.8 g.

Turning to `COc1ccc(CCN2CCC(C(=O)Nc3nn(C)c4ccccc34)CC2)cc1.Cl` [AF3R328, N-(1-methyl-1H-indazol-3-yl)-1-(2-(4-methoxyphenyl)ethyl)piperidine-4-carboxamide hydrochloride], the melting point was 137 to 139 °C (dec.). The “Pain threshold (g) 1 h after treatment” value in data set [1] is recorded as 150 ± 8.7 g. In data set [2], the “Pain threshold (g) 2 h after treatment” value amounted to 158 ± 6.2 g.

As to `Cl.Cn1nc(NC(=O)C2CCN(CCc3ccc(O)cc3)CC2)c2ccccc21` [AF3R330], the “Pain threshold (g) 1 h after treatment” value in data set [1] was 161 ± 10.5 g. For the same compound, the “Pain threshold (g) 2 h after treatment” value in data set [2] amounted to 171 ± 9.6 g.

In turn, `Cl.Cn1nc(NC(=O)C2CCN(CCc3ccccc3)CC2)c2ccccc21` [AF3R334, N-(1-methyl-1H-indazol-3-yl)-1-(2-phenylethyl)piperidine-4-carboxamide hydrochloride] showed a melting point of 235 to 237 °C. In addition, in data set [1], the “Pain threshold (g) 1 h after treatment” value is 170 ± 11.0 g. For the same compound, the “Pain threshold (g) 2 h after treatment” value in data set [2] is reported as 184 ± 10.5 g.

The melting point is the temperature, or range, at which the solid turns liquid.
